Results published in PMC3193053 (Analytical chemistry, 2011).

test system: VHH T9; assay: Cross-reactivity of the TCC competitive ELISA set up with VHH T9; type: binding, Lama glama; conditions: CR% = IC50 (TCC) ÷ IC50 (cross-reacting compound) × 100

Compound | CR (%)
O=C(Nc1ccc(Cl)c(Cl)c1)Nc1ccc(Cl)cc1O [2′-OH TCC] | 16.9%
O=C(Nc1ccc(Cl)c(Cl)c1)Nc1ccc(Cl)c(Cl)c1 [3,3′,4,4′-Tetrachloro-carbanilide] | 2.46%
O=C(Nc1ccc(Cl)cc1)Nc1ccc(Cl)c(C(F)(F)F)c1 [3-Trifluoromethyl-4,4′-dichlorocarbanilide] | 6.97%
O=C(Nc1ccc(Cl)cc1)Nc1ccc(Cl)cc1 [4,4′-Dichlorocarbanilide] | 13.3%
O=C(Nc1ccccc1)Nc1ccccc1 [Carbanilide] | 1.78%
O=C(Nc1ccc(Cl)c(Cl)c1)Nc1ccc(Cl)cc1OS(=O)(=O)O [Sulfate of 2′-OH TCC] | <0.1%
O=C(Nc1ccc(Cl)cc1)Nc1ccc(Cl)c(Cl)c1 [TCC, 3,4,4′-trichlorocarbanilide] | 100%
Oc1cc(Cl)ccc1Oc1ccc(Cl)cc1Cl [Triclosan] | <0.1%
CC(=O)N1CCC(NC(=O)Nc2ccc(OC(F)(F)F)cc2)CC1 [sEHi, #1555] | <0.1%
CS(=O)(=O)N1CCC(NC(=O)Nc2ccc(OC(F)(F)F)cc2)CC1 [sEHi, #1709] | <0.1%
Dinuron | <0.1%
